Experiment [1] relates to mAb H44/58. Briefly: SPOT peptide immunoblot, mAb H44/58. The settings on record: Membrane 2 (cyclic peptides), synthesised with pVIII flanking residues. The class given is binding, mouse. An excerpt:
Another experiment for determining the best peptide candidates for immunisation trials is whether chemically synthesized peptides are recognized by at least one anti-MenB LOS mAb (and preferably not by irrelevant mAbs). This can be assessed on SPOT synthesized peptides (peptides synthesized directly on a cellulose membrane). This membrane can be tested with different mAbs by repetitive immunoblottings and chemiluminescent detection. Peptides may be synthesised with 3 residues originating from the pVIII protein sequence on each end of the peptide. Indeed, the primary structure of the peptides expressed in fusion with pVIII on the surface of the bacteriophage is as follows (x for any residue in the library):
For example linear peptides comprising peptide No. 61 from Table 2 (GEFPRPHFGAPPDPA) and peptide No. 83 (GEFAERSLWYYPDPA) were synthesised on one membrane, and cyclised peptides comprising peptide No. 50 from Table 2 (GEFCSSYSYVHDSCGDP), peptide 14 (GEFCSHAPPYDRVCGDP) and peptide 25 (GEFCRAPPYDTIMCGDP) were synthesised on another.
The protocol used to probe these membranes with mAbs was the one provided by Genosys, with some modifications, especially for the regeneration of membranes with cyclised peptides. […]
For orientation: A western blot detects proteins with antibodies after separation by electrophoresis.

Experiment [2] concerns mAb H44/58. Briefly: Phage-ELISA with mAb H44/58. The class given is binding, mouse. Conditions: peptide-on-phage. As for the experimental part:
Phages were coated at 5×10^11 particules/ml on MaxiSorp multiwell plates. Coating was performed overnight at 4° C. with 100 μl/well. Plates were saturated with 5% (v/v) skimmed milk in TBS for 2 hours at 37° C. and washed 5 times with TBS-Tween20 0.05% (v/v). The mAbs were then incubated in the coated wells for 1 hour at 37° C., washed 5 times, and GAM-HRP conjugate (1500-fold dilution, Dako, Denmark) was added for 1 hour at 37° C. to detect the binding of the mAb to the phages. After 5 washings, the peroxidase activity was monitored by addition of the K-Blue® substrate (Neogen, Lexington, USA) at room temperature for 20 minutes. Reaction was stopped by addition of 25 μl of 2N H2SO4. Reading was performed at 450-630 nm. Each phage was coated in triplicate for testing with each mAb.
(In an ELISA, binding on a coated surface is turned into a signal by an enzyme label.)

For CRAPPYDTIMC [Peptide 25], the “SPOT recognition by mAb 58 (H44/58)” value in experiment [1] is reported as “positive”. Further, in experiment [2], the “Phage-ELISA result with mAb H44/58” value was “positive”.

The values are drawn from US20040047880A1, “Component for vaccine” (priority 2000, published 2004).
